PMC5218480 (PLoS ONE, 2017)

Tested on: MV-4-11 cells
Assay: Gene expression microarray analysis (Affymetrix PrimeView) and GSEA
Type: cell-based, human
Design: RFU PODN (11730768_x_at) / Fold change /veh PODN (11730768_x_at) / RFU LINC00158 (11744669_a_at) / Fold change /veh LINC00158 (11744669_a_at) / RFU DUSP10 (11751237_a_at) / Fold change /veh DUSP10 (11751237_a_at) / RFU ID3 (11757404_x_at) / Fold change /veh ID3 (11757404_x_at) / RFU PLEKHG5 (11737974_s_at) / Fold change /veh PLEKHG5 (11737974_s_at) / RFU LRRC4B (11730491_at) / Fold change /veh LRRC4B (11730491_at) / RFU GIMAP4 (11747438_a_at) / Fold change /veh GIMAP4 (11747438_a_at) / RFU KRT8 (11758183_x_at) / Fold change /veh KRT8 (11758183_x_at) / RFU CNN1 (11734310_a_at) / Fold change /veh CNN1 (11734310_a_at) / RFU VPS37D (11726825_at) / Fold change /veh VPS37D (11726825_at) / RFU C10orf10 (11716522_x_at) / Fold change /veh C10orf10 (11716522_x_at) / RFU KIR2DL2 /// KIR2DL4 /// KIR2DL5A /// KIR2DL5B /// KIR2DS1 /// KIR2DS2 /// KIR2DS3 /// KIR2DS4 /// KIR3DL3 /// KIR3DL3 /// KIR3DS1 (11738374_at) / Fold change /veh KIR2DL2 /// KIR2DL4 /// KIR2DL5A /// KIR2DL5B /// KIR2DS1 /// KIR2DS2 /// KIR2DS3 /// KIR2DS4 /// KIR3DL3 /// KIR3DL3 /// KIR3DS1 (11738374_at) / RFU C1QL1 (11718748_at) / Fold change /veh C1QL1 (11718748_at) / RFU TMPRSS4 (11747572_a_at) / Fold change /veh TMPRSS4 (11747572_a_at) / RFU HAMP (11756126_x_at) / Fold change /veh HAMP (11756126_x_at) / RFU RNFT2 (11725882_a_at) / Fold change /veh RNFT2 (11725882_a_at) / RFU NR4A2 (11747474_a_at) / Fold change /veh NR4A2 (11747474_a_at) / RFU ABCC12 (11746883_a_at) / Fold change /veh ABCC12 (11746883_a_at) / RFU TMEM136 (11760407_x_at) / Fold change /veh TMEM136 (11760407_x_at) / RFU CLDN22 /// WWC2 (11732394_at) / Fold change /veh CLDN22 /// WWC2 (11732394_at) / RFU HLA-DPB1 (11760878_x_at) / Fold change /veh HLA-DPB1 (11760878_x_at) / RFU SPINT1 (11716480_a_at) / Fold change /veh SPINT1 (11716480_a_at) / RFU GAP43 (11754022_s_at) / Fold change /veh GAP43 (11754022_s_at) / RFU A4GNT (11735810_at) / Fold change /veh A4GNT (11735810_at) / RFU PRB3 (11715151_x_at) / Fold change /veh PRB3 (11715151_x_at) / RFU TUBB4B (11761932_at) / Fold change /veh TUBB4B (11761932_at) / RFU CAPN14 (11732068_a_at) / Fold change /veh CAPN14 (11732068_a_at) / RFU TMCC2 (11721928_a_at) / Fold change /veh TMCC2 (11721928_a_at) / RFU IRGQ (11745062_a_at) / Fold change /veh IRGQ (11745062_a_at) / RFU FAM174B (11720279_a_at) / Fold change /veh FAM174B (11720279_a_at) / RFU TMPRSS4 (11748680_a_at) / Fold change /veh TMPRSS4 (11748680_a_at) / RFU FAM212B (11763350_a_at) / Fold change /veh FAM212B (11763350_a_at) / RFU PLEKHG5 (11743358_a_at) / Fold change /veh PLEKHG5 (11743358_a_at) / RFU ZSCAN30 (11745921_a_at) / Fold change /veh ZSCAN30 (11745921_a_at) / RFU CMKLR1 (11741424_a_at) / Fold change /veh CMKLR1 (11741424_a_at) / RFU LOC101060620 /// MAPK8IP1 (11723275_at) / Fold change /veh LOC101060620 /// MAPK8IP1 (11723275_at) / RFU SPTSSB (11747773_x_at) / Fold change /veh SPTSSB (11747773_x_at) / RFU PRSS12 (11739890_at) / Fold change /veh PRSS12 (11739890_at) / RFU BIN1 (11741810_x_at) / Fold change /veh BIN1 (11741810_x_at) / RFU WNT11 (11732464_a_at) / Fold change /veh WNT11 (11732464_a_at) / RFU C10orf10 (11716521_a_at) / Fold change /veh C10orf10 (11716521_a_at) / RFU C5orf56 (11738089_at) / Fold change /veh C5orf56 (11738089_at) / RFU CYB561 (11721691_x_at) / Fold change /veh CYB561 (11721691_x_at) / RFU ANKRD19P (11752326_a_at) / Fold change /veh ANKRD19P (11752326_a_at) / RFU OR2T12 /// OR2T33 /// OR2T8 (11738714_s_at) / Fold change /veh OR2T12 /// OR2T33 /// OR2T8 (11738714_s_at) / RFU VCAN (11748164_a_at) / Fold change /veh VCAN (11748164_a_at) / RFU JSRP1 (11732532_at) / Fold change /veh JSRP1 (11732532_at) / RFU KRTAP10-11 (11738290_x_at) / Fold change /veh KRTAP10-11 (11738290_x_at) / RFU MYO3A (11730013_a_at) / Fold change /veh MYO3A (11730013_a_at) / RFU EBF3 (11725865_a_at) / Fold change /veh EBF3 (11725865_a_at) / RFU CAMK2N1 (11719241_x_at) / Fold change /veh CAMK2N1 (11719241_x_at) / RFU C5orf56 (11738088_a_at) / Fold change /veh C5orf56 (11738088_a_at) / RFU OLFML3 (11715873_a_at) / Fold change /veh OLFML3 (11715873_a_at) / RFU LOC100653217 /// NTM (11731650_a_at) / Fold change /veh LOC100653217 /// NTM (11731650_a_at) / RFU MAPK11 (11762145_a_at) / Fold change /veh MAPK11 (11762145_a_at) / RFU FIZ1 (11724087_x_at) / Fold change /veh FIZ1 (11724087_x_at) / RFU OASL (11726364_x_at) / Fold change /veh OASL (11726364_x_at) / RFU SOX15 (11748057_x_at) / Fold change /veh SOX15 (11748057_x_at) / RFU CD79A (11719716_a_at) / Fold change /veh CD79A (11719716_a_at) / RFU HIST1H1D (11736915_at) / Fold change /veh HIST1H1D (11736915_at) / RFU CASKIN2 (11723855_a_at) / Fold change /veh CASKIN2 (11723855_a_at) / RFU LOC730098 (11760151_x_at) / Fold change /veh LOC730098 (11760151_x_at) / RFU OR4N2 (11742367_at) / Fold change /veh OR4N2 (11742367_at) / RFU PRRT2 (11749266_a_at) / Fold change /veh PRRT2 (11749266_a_at) / RFU SNX32 (11753110_a_at) / Fold change /veh SNX32 (11753110_a_at) / RFU CDHR5 (11726645_a_at) / Fold change /veh CDHR5 (11726645_a_at) / RFU RCAN1 (11760418_a_at) / Fold change /veh RCAN1 (11760418_a_at) / RFU FAM167A (11723789_a_at) / Fold change /veh FAM167A (11723789_a_at) / RFU FAM26E (11764081_at) / Fold change /veh FAM26E (11764081_at) / RFU ISYNA1 (11749810_s_at) / Fold change /veh ISYNA1 (11749810_s_at) / RFU ACY1 (11761880_at) / Fold change /veh ACY1 (11761880_at) / RFU 11764098_at / Fold change /veh 11764098_at / RFU SAMD14 (11745864_x_at) / Fold change /veh SAMD14 (11745864_x_at) / RFU NPB (11741838_a_at) / Fold change /veh NPB (11741838_a_at) / RFU TMPRSS6 (11731388_a_at) / Fold change /veh TMPRSS6 (11731388_a_at) / RFU KRTAP10-2 (11738614_at) / Fold change /veh KRTAP10-2 (11738614_at) / RFU ARHGAP8 /// PRR5-ARHGAP8 (11727945_x_at) / Fold change /veh ARHGAP8 /// PRR5-ARHGAP8 (11727945_x_at) / RFU KRTAP5-7 /// NADSYN1 (11734609_at) / Fold change /veh KRTAP5-7 /// NADSYN1 (11734609_at) / RFU RASL12 (11751679_a_at) / Fold change /veh RASL12 (11751679_a_at) / RFU CDKN2B (11736163_a_at) / Fold change /veh CDKN2B (11736163_a_at) / RFU PRF1 (11729649_at) / Fold change /veh PRF1 (11729649_at) / RFU, ZNF638 /// ZNF638-IT1 / Fold change vs veh, ZNF638 /// ZNF638-IT1 / RFU, PANK3 / Fold change vs veh, PANK3 / RFU, SH3YL1 / Fold change vs veh, SH3YL1 / RFU, ZEB2 / Fold change vs veh, ZEB2 / RFU, NRIP1 / Fold change vs veh, NRIP1 / RFU, PTTG1IP / Fold change vs veh, PTTG1IP / RFU, CAPN2 / Fold change vs veh, CAPN2 / RFU, MED14 / Fold change vs veh, MED14 / RFU, SNORA58 / Fold change vs veh, SNORA58 / RFU, C1orf63 / Fold change vs veh, C1orf63 / RFU, LRRFIP1 / Fold change vs veh, LRRFIP1 / RFU, NDUFAF7 / Fold change vs veh, NDUFAF7 / RFU, SLC12A2 / Fold change vs veh, SLC12A2 / RFU, IBTK / Fold change vs veh, IBTK / RFU, ESF1 / Fold change vs veh, ESF1 / Fold change vs veh, TMEM50B / RFU, TAOK1 / Fold change vs veh, TAOK1 / RFU, ACBD3 / Fold change vs veh, ACBD3 / RFU, TMA16 / Fold change vs veh, TMA16 / RFU, RWDD3 / Fold change vs veh, RWDD3 / RFU, BCAT1 / Fold change vs veh, BCAT1 / RFU, EDEM3 / Fold change vs veh, EDEM3 / RFU, TMEM33 / Fold change vs veh, TMEM33 / RFU, WDR75 / Fold change vs veh, WDR75 / RFU, AHCTF1 / Fold change vs veh, AHCTF1 / RFU, TFRC / Fold change vs veh, TFRC / RFU, ZDHHC17 / Fold change vs veh, ZDHHC17 / RFU, NOM1 / Fold change vs veh, NOM1 / RFU, ARL8B / Fold change vs veh, ARL8B / RFU, ZBTB11 / Fold change vs veh, ZBTB11 / RFU, TAMM41 / Fold change vs veh, TAMM41 / RFU, KIAA1704 /// LOC100996395 / Fold change vs veh, KIAA1704 /// LOC100996395 / RFU, ING1 / Fold change vs veh, ING1 / RFU, TRMT61B / Fold change vs veh, TRMT61B / RFU, FUBP3 / Fold change vs veh, FUBP3 / RFU, TP53 / Fold change vs veh, TP53 / RFU, TNKS2 / Fold change vs veh, TNKS2 / RFU, ZFP14 / Fold change vs veh, ZFP14 / RFU, ACTR2 / Fold change vs veh, ACTR2 / RFU, PPP3R1 / Fold change vs veh, PPP3R1 / RFU, PIK3R1 / Fold change vs veh, PIK3R1 / RFU, HNRNPA1 / Fold change vs veh, HNRNPA1 / RFU, RNF170 / Fold change vs veh, RNF170 / RFU, ZNF28 / Fold change vs veh, ZNF28 / RFU, RNGTT / Fold change vs veh, RNGTT / RFU, OGT / Fold change vs veh, OGT / RFU, BRD1 / Fold change vs veh, BRD1 / RFU, MARS / Fold change vs veh, MARS / RFU, ZNF655 / Fold change vs veh, ZNF655 / RFU, FAHD1 / Fold change vs veh, FAHD1 / RFU, BDP1 / Fold change vs veh, BDP1 / RFU, LRRCC1 / Fold change vs veh, LRRCC1 / RFU, ARID1A / Fold change vs veh, ARID1A / RFU, ZNF146 / Fold change vs veh, ZNF146 / RFU, ZNF330 / Fold change vs veh, ZNF330 / RFU, GPN3 / Fold change vs veh, GPN3 / RFU, C9orf123 / Fold change vs veh, C9orf123 / RFU, N4BP2L2 / Fold change vs veh, N4BP2L2 / RFU, ARFIP1 / Fold change vs veh, ARFIP1 / RFU, FAM179B / Fold change vs veh, FAM179B / RFU, BCL10 / Fold change vs veh, BCL10 / RFU, UHRF1BP1L / Fold change vs veh, UHRF1BP1L / RFU, BET1 / Fold change vs veh, BET1 / RFU, CNOT2 / Fold change vs veh, CNOT2 / RFU, ZNF268 / Fold change vs veh, ZNF268 / Fold change vs veh, ZNF507 / RFU, DGCR2 / Fold change vs veh, DGCR2 / RFU, WDSUB1 / Fold change vs veh, WDSUB1 / Fold change vs veh, HSP90B1 /// MIR3652 / RFU, ADSS / Fold change vs veh, ADSS / RFU, GK / Fold change vs veh, GK / RFU, ZNF148 / Fold change vs veh, ZNF148 / RFU, TAF9 / Fold change vs veh, TAF9 / RFU, SLC1A5 / Fold change vs veh, SLC1A5 / RFU, SLMO2 / Fold change vs veh, SLMO2 / RFU, ABCC4 / Fold change vs veh, ABCC4 / RFU, LOC101060439 /// RAP1B / Fold change vs veh, LOC101060439 /// RAP1B / RFU, RFX7 / Fold change vs veh, RFX7 / RFU, GTPBP10 / Fold change vs veh, GTPBP10 / RFU, CNEP1R1 / Fold change vs veh, CNEP1R1 / RFU, BIVM-ERCC5 /// ERCC5 / Fold change vs veh, BIVM-ERCC5 /// ERCC5 / RFU, ILF3 / Fold change vs veh, ILF3 / RFU 11762660_at / Fold change /veh 11762660_at / RFU VCAN (11757783_s_at) / Fold change /veh VCAN (11757783_s_at) / RFU DDX43 (11728927_at) / Fold change /veh DDX43 (11728927_at) / RFU KRT8 (11758188_x_at) / Fold change /veh KRT8 (11758188_x_at) / RFU NKD1 (11759106_at) / Fold change /veh NKD1 (11759106_at) / RFU SRD5A1 (11742802_a_at) / Fold change /veh SRD5A1 (11742802_a_at) / RFU TPSAB1 /// TPSB2 (11721975_s_at) / Fold change /veh TPSAB1 /// TPSB2 (11721975_s_at) / RFU GSTM3 (11746129_a_at) / Fold change /veh GSTM3 (11746129_a_at) / RFU IL23R (11737362_x_at) / Fold change /veh IL23R (11737362_x_at) / RFU TMEM51 (11727254_a_at) / Fold change /veh TMEM51 (11727254_a_at) / RFU PIWIL2 (11732686_x_at) / Fold change /veh PIWIL2 (11732686_x_at) / RFU ORM1 (11744905_x_at) / Fold change /veh ORM1 (11744905_x_at) / RFU CCDC152 (11743942_at) / Fold change /veh CCDC152 (11743942_at) / RFU ECM1 (11717891_a_at) / Fold change /veh ECM1 (11717891_a_at) / RFU IL23R (11748794_a_at) / Fold change /veh IL23R (11748794_a_at) / RFU TNFAIP8L3 (11732012_x_at) / Fold change /veh TNFAIP8L3 (11732012_x_at) / RFU MBOAT4 (11741988_at) / Fold change /veh MBOAT4 (11741988_at) / RFU 11764193_at / Fold change /veh 11764193_at / RFU TMEM53 (11763286_at) / Fold change /veh TMEM53 (11763286_at) / RFU MAGEB2 (11727129_at) / Fold change /veh MAGEB2 (11727129_at) / RFU TMEM200A (11744735_a_at) / Fold change /veh TMEM200A (11744735_a_at) / RFU CCDC152 (11751479_a_at) / Fold change /veh CCDC152 (11751479_a_at) / RFU FAM211A (11726209_a_at) / Fold change /veh FAM211A (11726209_a_at) / RFU RGS16 (11746705_a_at) / Fold change /veh RGS16 (11746705_a_at) / RFU VCAN (11755009_s_at) / Fold change /veh VCAN (11755009_s_at) / RFU RHOB (11743442_s_at) / Fold change /veh RHOB (11743442_s_at) / RFU RGS16 (11720943_a_at) / Fold change /veh RGS16 (11720943_a_at) / RFU RGS16 (11720944_at) / Fold change /veh RGS16 (11720944_at) / RFU, VPS4B / Fold change vs veh, VPS4B / RFU, CREB1 / Fold change vs veh, CREB1 / RFU, DNAJC13 / Fold change vs veh, DNAJC13 / RFU, GNAQ / Fold change vs veh, GNAQ / RFU, CDK5R1 / Fold change vs veh, CDK5R1 / RFU, ZRANB3 / Fold change vs veh, ZRANB3 / RFU, CUL4A / Fold change vs veh, CUL4A / RFU, CCNY / Fold change vs veh, CCNY / RFU, UFL1 / Fold change vs veh, UFL1 / RFU, COG3 / Fold change vs veh, COG3 / RFU, DIAPH2 / Fold change vs veh, DIAPH2 / RFU, SKA2 / Fold change vs veh, SKA2 / RFU, AFF3 / Fold change vs veh, AFF3 / RFU, LMF1 / Fold change vs veh, LMF1 / RFU, IPO11 / Fold change vs veh, IPO11 / RFU, DFFB / Fold change vs veh, DFFB / RFU, FOXP1 / Fold change vs veh, FOXP1 / RFU, CARD8 / Fold change vs veh, CARD8 / RFU, STRN3 / Fold change vs veh, STRN3 / RFU, ADK / Fold change vs veh, ADK / RFU, RASSF2 / Fold change vs veh, RASSF2 / RFU, WIPF1 / Fold change vs veh, WIPF1 / RFU, LARP1B / Fold change vs veh, LARP1B / RFU, RASA1 / Fold change vs veh, RASA1 / RFU, RB1 / Fold change vs veh, RB1 / RFU, PPFIA1 / Fold change vs veh, PPFIA1 / RFU, MAT2A / Fold change vs veh, MAT2A / RFU, CCT5 / Fold change vs veh, CCT5 / RFU, WDR92 / Fold change vs veh, WDR92 / RFU, CUX1 / Fold change vs veh, CUX1 / RFU, TTC7A / Fold change vs veh, TTC7A / RFU, TMEM135 / Fold change vs veh, TMEM135 / RFU, DEPTOR / Fold change vs veh, DEPTOR / RFU, CPM / Fold change vs veh, CPM / RFU, DNAJB6 / Fold change vs veh, DNAJB6 / RFU, CACNA2D3 / Fold change vs veh, CACNA2D3 / RFU, DTX4 / Fold change vs veh, DTX4 / RFU, TFCP2 / Fold change vs veh, TFCP2 / RFU, GMCL1 /// GMCL1P1 / Fold change vs veh, GMCL1 /// GMCL1P1 / RFU, AEBP2 / Fold change vs veh, AEBP2 / RFU, SNHG1 /// SNORD22 /// SNORD25 /// SNORD26 /// SNORD27 /// SNORD28 /// SNORD29 /// SNORD31 / Fold change vs veh, SNHG1 /// SNORD22 /// SNORD25 /// SNORD26 /// SNORD27 /// SNORD28 /// SNORD29 /// SNORD31 / Fold change (Aza/veh), C12orf56 (ProbeSet 11735607_a_at) / Fold change (ACY-1035/veh), C12orf56 (ProbeSet 11735607_a_at) / Fold change (Aza/veh), FGFR1OP (ProbeSet 11751329_s_at) / Fold change (ACY-1035/veh), FGFR1OP (ProbeSet 11751329_s_at) / Fold change (Aza/veh), VPS36 (ProbeSet 11739960_a_at) / Fold change (ACY-1035/veh), VPS36 (ProbeSet 11739960_a_at) / RFU SYPL1 (11715823_x_at) / Fold change /veh SYPL1 (11715823_x_at) / RFU IGFBP7 (11715501_s_at) / Fold change /veh IGFBP7 (11715501_s_at) / RFU REEP3 (11722064_at) / Fold change /veh REEP3 (11722064_at) / RFU IGLL1 (11728026_x_at) / Fold change /veh IGLL1 (11728026_x_at): dose or concentration left out as unconfirmed
Settings: ProbeSet 11727958_a_at; LIST B

## Nc1ncn([C@@H]2O[C@H](CO)[C@@H](O)[C@H]2O)c(=O)n1 [azacitidine]
  RFU, ING1: 72.09 RFU
